Patent US9012402B1, “Gel for topical delivery of NSAIDs to provide relief of musculoskeletal pain and methods for its preparation” (priority 2014, dated 2015)

How the values were obtained:
[1] = cited from earlier work
[2] = topical, average of seven clinical studies; cited from earlier work
[3] = Fraction of drug unionized at a given pH; assay type: physicochemical

fraction unionized ([3]; at pH 3.5) [%] | fraction unionized ([3]; at pH 6.0) [%] | fraction in the unionized form ([3]; pH of 5 or less) [%] | fraction in unionized form ([3]; pH of 6.5) [%] | SMILES | Log P (octanol: water) [1] | study participants who experienced relief of acute pain [2] [%]
– | – | – | – | CC(C(=O)O)c1cccc(C(=O)c2ccccc2)c1 (stereo not shown) [Ketoprofen, 2-(3-benzoylphenyl)-propionic acid] | 2.68 | 73
– | – | – | – | O=C(O)Cc1ccccc1Nc1c(Cl)cccc1Cl [diclofenac] | – | 52
88.8 | 2.45 | > 20 | 0.79 | CC(C)Cc1ccc(C(C)C(=O)O)cc1 (stereo not shown) [ibuprofen] | – | –
